Laboratory results reported in patent US9440980B2, “Remedy for diabetes” (EA Pharma Co., Ltd., priority 2007, dated 2016).

Legend:
[1] = system: PI3-kinase β (p110β/p85α); assay: PI3-kinase subtype activity with or without Gβ1γ2-Myc (PIP3 production, 32P-ATP, TLC); type: biochemical
Description: The subtypes α (PI3 Kinase (p110α/p85α), active, Upstate, Product No. 14-602), β (PI3 Kinase (p110β/p85α), active, Upstate, Product No. 14-603), γ ((PI3KγHis-GST (Phosphoinositide 3-kinase p110γHis/p101GST) human, Recombinant, Sf9 insect cell, JENA Bioscience, Product No. PR-347S), and δ (PI3 Kinase (p110δ/p85α), active, Upstate, Product No. 14-604) were used as the PI3-kinase subtypes respectively. A PI3K buffer (40 mM HEPES-Na (pH 7.4), 120 mM NaCl, 1 mM EGTA, 1 mM dithiothreitol, 1 mM β glycerophosphoric acid, 10 mM MgCl2, 0.1% BSA) was used as a buffer in the following reactions.
To the lipid micelle solution (125 μl) was added the purified Gβ1γ2-Myc solution (250 μl, 10 μg/ml) obtained in (1), and the resultant solution was stirred and left in ice for 10 minutes. 30 μl of the lipid micelle solution containing the Gβγ2-Myc was dispensed into 1.5-ml microtubes, and to these were added 5 μl of a compound solution and 5 μl of each PI3-kinase subtype (α, β, and δ: 5 μg/ml, γ: 2.5 μg/ml) successively. The mixture was left at room temperature for 10 minutes, and a 40-μM ATP solution (10 μl) containing ^32P-γ-ATP was added thereto, to initiate a reaction. The amount of the ^32P-γ-ATP added was about 300 kBq per one reaction. The reaction was carried out at room temperature for 30 minutes, and stopped by adding 80 μl of 1N HCl at ice temperature. 300 μl of a chloroform:methanol (1:1) solution was added thereto, the mixture was stirred to extract the lipid, and the organic layer was washed with 80 μl of 1N HCl twice. The solvent was removed from the residual organic layer under reduced pressure, the residue was dissolved in 20 μl of a chloroform:methanol (4:1) solution, the entire solution was spotted on a TLC plate (Merck, Kieselgel 60), and a TLC was carried out for about 4 hours using a developer of acetic acid:water:1-propanol (4:31:65). The TLC plate was treated with oxalic acid beforehand such that the plate was sufficiently developed by a 40% methanol solution containing 1% of potassium oxalate, dried overnight, and activated at 110° C. for 30 minutes. After the developing, the TLC plate was sufficiently dried and exposed using an imaging plate, and data were obtained by BAS2000 (FUJIFILM Corporation). The data were analyzed by a software of BAS2000, the analysis region was controlled such that spots of phosphatidylinositol-[3,4,5]-trisphosphate (PIP3) in the TLC lanes have the same areas, and the energy (PSL) corresponding to each radioactivity was quantified in the region.
A lipid micelle solution was prepared in the same manner as (2). […] The reaction was carried out at room temperature for 15 minutes, the resultant was treated in the same manner as (2), and the amount of the produced PIP3 was measured.

[2] = target: T1, binding between the Gβ and the p110β (PI3-kinase β) (Homo sapiens, UniProt P42338+P62873); assay: Binding of Gβ1γ2-Myc to PI3-kinase β (immunoprecipitation, Western blot); conditions: Compound 1 (0.1 μM) and Compound 6 (1 mM) approximately the same effect; FIG. 15
T1 construct: purchased Upstate 14-603
T1 sequence (P42338 whole entry): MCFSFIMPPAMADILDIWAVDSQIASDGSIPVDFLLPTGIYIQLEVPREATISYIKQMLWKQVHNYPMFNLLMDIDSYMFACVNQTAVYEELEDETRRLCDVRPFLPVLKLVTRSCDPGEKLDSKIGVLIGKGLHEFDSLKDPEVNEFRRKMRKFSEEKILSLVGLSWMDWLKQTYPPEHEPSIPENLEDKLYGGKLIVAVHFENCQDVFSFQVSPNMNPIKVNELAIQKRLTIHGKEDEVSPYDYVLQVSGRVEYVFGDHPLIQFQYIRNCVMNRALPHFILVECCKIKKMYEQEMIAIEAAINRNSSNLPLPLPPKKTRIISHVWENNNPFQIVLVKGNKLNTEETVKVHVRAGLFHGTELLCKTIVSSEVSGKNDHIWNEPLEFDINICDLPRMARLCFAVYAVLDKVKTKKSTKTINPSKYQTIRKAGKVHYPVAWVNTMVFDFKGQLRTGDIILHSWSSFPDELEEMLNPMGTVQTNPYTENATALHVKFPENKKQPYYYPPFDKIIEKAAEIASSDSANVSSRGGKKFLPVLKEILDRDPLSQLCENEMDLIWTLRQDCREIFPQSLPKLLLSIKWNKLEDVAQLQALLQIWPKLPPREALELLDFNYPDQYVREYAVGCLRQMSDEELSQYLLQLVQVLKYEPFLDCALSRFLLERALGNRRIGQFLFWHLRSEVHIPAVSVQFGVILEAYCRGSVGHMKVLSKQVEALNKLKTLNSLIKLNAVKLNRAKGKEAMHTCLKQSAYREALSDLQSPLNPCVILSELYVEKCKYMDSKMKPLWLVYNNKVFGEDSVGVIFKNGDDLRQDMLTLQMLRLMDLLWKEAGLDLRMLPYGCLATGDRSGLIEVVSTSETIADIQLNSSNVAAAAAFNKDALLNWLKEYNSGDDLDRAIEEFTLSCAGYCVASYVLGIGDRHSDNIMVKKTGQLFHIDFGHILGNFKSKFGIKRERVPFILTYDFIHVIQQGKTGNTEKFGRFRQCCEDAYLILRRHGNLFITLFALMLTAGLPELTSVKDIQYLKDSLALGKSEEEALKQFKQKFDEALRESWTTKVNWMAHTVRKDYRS
T1 sequence (P27986 whole entry partner): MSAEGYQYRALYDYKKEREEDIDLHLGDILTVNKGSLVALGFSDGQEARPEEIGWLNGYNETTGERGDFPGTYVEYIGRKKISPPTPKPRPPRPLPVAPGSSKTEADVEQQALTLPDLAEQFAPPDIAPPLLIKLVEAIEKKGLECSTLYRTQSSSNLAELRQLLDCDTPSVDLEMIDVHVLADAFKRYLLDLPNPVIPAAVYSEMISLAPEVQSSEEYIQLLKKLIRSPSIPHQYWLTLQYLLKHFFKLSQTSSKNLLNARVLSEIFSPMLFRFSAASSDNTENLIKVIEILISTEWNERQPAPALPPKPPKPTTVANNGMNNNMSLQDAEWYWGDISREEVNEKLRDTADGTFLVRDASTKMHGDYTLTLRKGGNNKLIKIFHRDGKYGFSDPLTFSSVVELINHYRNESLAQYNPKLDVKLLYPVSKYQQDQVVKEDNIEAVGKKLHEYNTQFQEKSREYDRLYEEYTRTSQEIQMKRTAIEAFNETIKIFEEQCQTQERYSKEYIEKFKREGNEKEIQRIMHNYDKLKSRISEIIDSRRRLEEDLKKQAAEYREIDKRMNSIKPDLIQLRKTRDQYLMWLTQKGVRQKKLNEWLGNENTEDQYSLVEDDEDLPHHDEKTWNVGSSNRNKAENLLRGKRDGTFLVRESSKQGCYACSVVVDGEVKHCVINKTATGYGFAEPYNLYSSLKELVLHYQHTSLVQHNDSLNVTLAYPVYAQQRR
T1 sequence (P62873 whole entry): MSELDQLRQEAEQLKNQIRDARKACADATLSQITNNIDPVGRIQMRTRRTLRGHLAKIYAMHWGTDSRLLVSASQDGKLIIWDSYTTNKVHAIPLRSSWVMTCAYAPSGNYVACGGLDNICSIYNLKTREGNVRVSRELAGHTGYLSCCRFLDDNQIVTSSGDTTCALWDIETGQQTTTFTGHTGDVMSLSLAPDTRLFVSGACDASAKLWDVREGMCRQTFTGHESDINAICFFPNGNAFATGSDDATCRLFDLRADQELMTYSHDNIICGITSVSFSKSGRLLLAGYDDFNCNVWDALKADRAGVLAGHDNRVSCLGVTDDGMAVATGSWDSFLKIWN
T1 sequence (P59768 with tags, fused parts or gaps partner limits assumed): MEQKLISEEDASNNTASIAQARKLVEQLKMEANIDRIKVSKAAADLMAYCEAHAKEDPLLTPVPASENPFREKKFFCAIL
Description: 300 μl of a PI3K buffer (40 mM HEPES-Na (pH 7.4), 120 mM NaCl, 1 mM EGTA, 1 mM dithiothreitol, 1 mM β glycerophosphoric acid, 10 mM MgCl2, 0.1% BSA) was added to a 1.5-ml microtube, and to this were added 200 ng of the Gβ1γ2-Myc obtained in Example 20 (1), 160 ng of PI3-kinase β (PI3 Kinase (p110β/p85α), active, Upstate, Product No. 14-603), and a test substance. The mixture was left at room temperature for 30 minutes, to this was added 10 μl of a solution of an anti-cMyc antibody (9E10, 200 μg/ml, SantaCruz, Product No. sc-40), and the resulting mixture was left at room temperature for 2 hours. To the solution was added 25 μl of anti-mouse IgG agarose beads (American Qualex, Product No. 61060) which were washed with the same buffer, stirred at room temperature for 1 hour and centrifuged (10000 rpm, 1 minute) to remove the supernatant. Furthermore, the beads were washed with 0.5 ml of the buffer 3 times, eluted in a boiling SDS-containing buffer, and subjected to an SDS polyacrylamide electrophoresis. Then, the amounts of the p110β and the Gβ adsorbed to the beads were measured by a Western blot method using an anti-p110β antibody (SantaCruz, Product No. sc-602) and an anti-Gβ antibody (SantaCruz, Product No. sc-261).

[3] = target: T2, PI3-kinase β in the presence of Gβ1γ2-His (Homo sapiens, UniProt P42338+P62873); assay: PI3-kinase β activation assay in the presence of Gβ1γ2-His (scintillation counting); type: biochemical; conditions: FIG. 17
T2 construct: purchased Upstate 14-603
T2 sequence (P42338 whole entry): as the sequence (P42338 whole entry) above
T2 sequence (P27986 whole entry partner): as the sequence (P27986 whole entry partner) above
T2 sequence (P62873 whole entry): as the sequence (P62873 whole entry) above
T2 sequence (P59768 with tags, fused parts or gaps partner limits assumed): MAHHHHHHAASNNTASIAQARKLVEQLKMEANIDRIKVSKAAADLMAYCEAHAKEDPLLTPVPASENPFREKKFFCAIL
Description: A lipid micelle solution was prepared in accordance with a method described in Example 24 (2), to this was added the Gβ1γ2-His prepared in (1) at a concentration of 13.3 μg/ml, and the mixture was left on ice for 10 minutes. To 30 μl of the resultant solution were added 5 μl of a solution containing Compound 1 or 6 and 5 μl of a PI3-kinase β solution (5 μg/ml) successively. A 40 μM ATP solution (10 μl) containing ^32P-γ-ATP was added thereto, and a reaction was carried out at room temperature for 2 hours. The reaction was stopped by addition of 80 μl of 1N HCl, and the lipid was extracted with 300 μl of chloroform:methanol (1:1). The organic layer was washed with 80 μl of 1N HCl twice, 10 ml of a liquid scintillator (Hionic Fluor) was added thereto, and the […] was measured by a liquid scintillation counter.

[4] = target: T3, Gβ1γ2-Myc (Homo sapiens, UniProt P62873); assay: Gβ binding ability using Gβ-expressing insect cell extract solution (PD10 method); conditions: binding strength Compound 1>Compound 3>Compound 6, FIG. 8
T3 construct: made in house; host or cells: Sf21 insect cells (baculovirus), unpurified Triton X-100 extract
T3 sequence (P62873 whole entry): as the sequence (P62873 whole entry) above
Description: The PD10 method was carried out as follows. To a microtube were added 250 μl of an RBA buffer, 100 μl of an RBA buffer containing 0 or 500 μM of the unlabeled Compound 1, 100 μl of the above extract solution, and 50 μl of an RBA buffer containing 2.5 μM of the ^3H-labeled Compound 1 successively, and the resultant mixture was stirred and left at room temperature for 1 hour. The entire reaction solution (0.5 ml) was added to a PD10 column sufficiently substituted with the RBA buffer, 2 ml of the RBA buffer was passed through the PD10 column, and thereafter further eluate by 1.5 ml of the RBA buffer was collected as a high-molecular fraction containing the protein, 15 ml of a liquid scintillator was added thereto, and the amount of the ^3H-labeled Compound 1 contained in the high-molecular fraction was measured by a scintillation counter. The count of the sample added with the unlabeled Compound 1 at the final concentration of 100 μM was considered to correspond to the nonspecific binding, the difference between the nonspecific binding count and the count of the sample not added with the unlabeled Compound 1 was considered to correspond to the specific binding, and thus the amount of the binding protein contained in the extract solution was evaluated.
Using the frozen insect cell Sf21 expressing the Gβ1, Myc-Gγ2, and Gαi1-His prepared in Example 19 (8), 10^7 cells were melted and suspended in 1.3 ml of an RBA buffer containing 1% Triton X-100 (75 mM Tris-HCl, 12.5 mM MgCl2, 2 mM EDTA, pH 7.4). […]
The inhibitory activity against the binding of the ^3H-labeled Compound 1 to the Gβ1γ2-Myc was considered to correspond to the activity of the compounds for binding to the Gβ1γ2-Myc. Thus, the activity of each of Compounds 1, 3, and 6 for binding to the Gβ1γ2-Myc was measured using the above extract solution. The activity of the ^3H-labeled Compound 1 for binding to the protein contained in the extract solution was measured by the PD10 method described in Example 15 (1). […]

Row | effect on the binding between the Gβ and the p110β (PI3-kinase β) [2] | PI3-kinase activity compared with the case without compound ([3]; 100 μM) | binding to Gβ1γ2-Myc (inhibition of 3H-labeled Compound 1 binding) [4] | effect on PI3-kinase β activity ([1]; absence of the Gβ (Gβ1γ2-Myc), FIG. 14) | PI3-kinase activity compared with the case without compound ([3]; 0.1 μM, 10 μM) | Structure (SMILES) | effect of enhancing the enzymatic activity of the PI3-kinase β ([1]; presence of Gβ1γ2-Myc, concentration-dependent, 100 μM and 1 mM, FIG. 14) | effect on PI3-kinase β activity ([1]; 30 μM, presence of Gβ1γ2-Myc, FIG. 13) | effect of enhancing the enzymatic activity of the PI3-kinase β ([1]; presence of Gβ1γ2-Myc, concentration-dependent, 0.1, 1, and 10 μM, FIG. 14)
1 | enhanced | clearly increased | could be bound to the Gβγ2-Myc | – | – | O=C1NCC2=C1[C@@H](c1ccccc1)N(C(=O)CO)[C@@H]1CCCC[C@H]1N2 [Compound 6] | significant effect of enhancing the enzymatic activity | – | –
2 | enhanced | – | could be bound to the Gβγ2-Myc | no effects | clearly increased | O=C1NCC2=C1[C@@H](c1cccc3ccsc13)N(C(=O)CCc1ccccn1)[C@@H]1CCCC[C@H]1N2 [Compound 1] | – | significant activating effect only on the PI3-kinase β | significant effect of enhancing the enzymatic activity
